# Results taken from US8729098B2, “Tertiary 8-hydroxyquinoline-7-carboxamide derivatives and uses thereof” (Polichem SA, priority 2009, dated 2014).
# Columns and labels:
# [1] = tested on: Aspergillus Niger (ATCC 16404); test: Broth micro-dilution antifungal susceptibility test (MIC); assay type: cell-based; conditions: ATCC16404, 120 h, RPMI 1640 pH 7, five days at 35° C., geometric mean of two experiments
# Protocol: (§1) Trichophyton Rubrum (ATCC 28188, PBI International), Trichophyton Mentagrophytes (ATCC 9533, PBI International), Aspergillus Niger (ATCC 16404, PBI International), Scopulariopsis Brevicaulis (ATCC 36840, DSMZ), Candida Albicans (ATCC 90028, PBI International), Candida Glabrata (ATCC 90030, DSMZ).
# (§2) Strains were prepared from freeze-dried ampoules or freeze-dried pellets. An isolation of the suspensions was made on Potato Dextrose Agar (PDA) to test the strains purity. A strains' massive growth was then made streaking microbial suspensions on PDA plates.
# (§3) Incubation was at 30° C. for 48-72 hours (Candida yeasts) and for 7-10 days (filamentous fungi).
# (§4) The yeasts' colonies and the filamentous fungi's conidia were harvested with 3-5 mL of RPMI 1640+50% glycerol and the aliquots frozen at −80° C.
# (§5) Compounds' minimal inhibition concentration (MIC) was determined through broth micro-dilution susceptibility test using a method developed in agreement with the National Committee for Clinical Laboratory Standards (NCCLS) (National Committee for Clinical Laboratory Standards. Reference Method for Broth Dilution Antifungal Susceptibility Testing of Yeasts; Approved standard-Second Edition M27-A2. 2002; Vol. 22, No. 15) (National Committee for Clinical Laboratory Standards. Reference Method for Broth Dilution Antifungal Susceptibility Testing of Filamentous Fungi; Approved standard M38-A. 2002; Vol. 22, No. 16).
# (§6) Assays were carried out in RPMI 1640 with L-glutamine medium buffered to pH 7 with 0.165M 3-(N-morpholino)propanesulfonic acid (MOPS) and 10M NaOH and supplemented with 18 g glucose/litre. The tests were performed using 96 well sterile plates (inoculum size of 1×10^5 CFU/mL). Compounds stock solutions were prepared at 12.8 mg/mL in 100% DMSO. A series of twofold dilutions were prepared in plate using RPMI 1640. Final concentrations ranged from 0.125 to 128 μg/mL at 1% DMSO.
# (§7) MIC is defined as the lowest concentration of antifungal agent which prevents any visible growth and was determined after 48 h of incubation for yeasts (35° C.) and after five days of incubation for filamentous fungi (35° C.).
# [2] = tested on: Candida Albicans (ATCC 90028); test: as above; assay type: cell-based; conditions: ATCC90028, RPMI 1640 pH 7, 48 h at 35° C., geometric mean of two experiments
# Protocol: as §1, §2, §3, §4, §5, §6, §7
# [3] = tested on: Candida Glabrata (ATCC 90030); test: as above; assay type: cell-based; conditions: Nakaseomyces glabratus, ATCC90030; RPMI 1640 pH 7, 48 h at 35° C.; geometric mean of two experiments
# Protocol: as §1, §2, §3, §4, §5, §6, §7
# [4] = tested on: Scopulariopsis Brevicaulis (ATCC 36840); test: as above; assay type: cell-based; conditions: ATCC36840, 120 h, RPMI 1640 pH 7, five days at 35° C., geometric mean of two experiments
# Protocol: as §1, §2, §3, §4, §5, §6, §7
# [5] = tested on: Trichophyton Mentagrophytes (ATCC 9533); test: as above; assay type: cell-based; conditions: ATCC9533, 120 h, RPMI 1640 pH 7, five days at 35° C., geometric mean of two experiments, read-out: MIC Tricophyton Mentagrophytes ATCC 9533
# Protocol: as §1, §2, §3, §4, §5, §6, §7
# [6] = tested on: Trichophyton Rubrum (ATCC 28188); test: as above; assay type: cell-based; conditions: ATCC28188, 120 h, RPMI 1640 pH 7, five days at 35° C., geometric mean of two experiments, read-out: MIC Trycophyton Rubrum ATCC 28188
# Protocol: as §1, §2, §3, §4, §5, §6, §7
# invasive aspergillosis = conditions: daily administered at 10 mg/kg; cited from earlier work
MIC [1] [µg/mL],MIC [2] [µg/mL],MIC [3] [µg/mL],MIC [4] [µg/mL],MIC [5] [µg/mL],MIC [6] [µg/mL],Structure (SMILES),rate of nephrotoxicity (invasive aspergillosis) [%]
0.25,2,2,2,2,1,"O=C(c1ccc2cccnc2c1O)N1Cc2ccccc2C1 [Example 10, (8-Hydroxyquinolin-7-yl)(isoindolin-2-yl)methanone]",–
0.5,1.41,2,1.41,1.41,1.41,"O=C(c1ccc2cccnc2c1O)N1CCC2CCCCC2C1 (stereo not shown) [Example 6, (8-Hydroxyquinolin-7-yl)(octahydroisoquinolin-2(1H)-yl)methanone]",–
0.18,2,2,0.71,1.41,1,"O=C(c1ccc2cccnc2c1O)N1CCOc2ccccc21 [Example 74, (2H-Benzo[b][1,4]oxazin-4(3H)-yl)(8-hydroxyquinolin-7-yl)methanone]",–
0.71,1.41,2,2,1,2,"CN(Cc1ccc(Cl)cc1)C(=O)c1ccc2cccnc2c1O [Example 56, N-(4-Chlorobenzyl)-8-hydroxy-N-methylquinoline-7-carboxamide]",–
0.25,2,2.83,1,1.41,0.71,"O=C(c1ccc2cccnc2c1O)N1C2CCCCC2C2CCCCC21 (stereo not shown) [Example 49, (Decahydro-1H-carbazol-9(9aH)-yl)(8-hydroxyquinolin-7-yl)methanone]",–
0.25,2,1,1,2,1,"O=C(c1ccc2cccnc2c1O)N1CCCc2c(F)cc(F)cc21 [Example 70, (5,7-Difluoro-3,4-dihydroquinolin-1(2H)-yl)(8-hydroxyquinolin-7-yl)methanone]",–
0.25,2,2,0.5,2,1,"O=C(c1ccc2cccnc2c1O)N1CCCc2cc(F)ccc21 [Example 72, (6-Fluoro-3,4-dihydroquinolin-1(2H)-yl)(8-hydroxyquinolin-7-yl)methanone]",–
–,–,–,–,–,–,C[C@@H]1[C@H](O)[C@@H](C)/C=C/C=C/C=C/C=C/C=C/C=C/C=C/[C@H](O[C@@H]2O[C@H](C)[C@@H](O)[C@H](N)[C@@H]2O)C[C@@H]2O[C@](O)(C[C@@H](O)C[C@@H](O)[C@H](O)CC[C@@H](O)C[C@@H](O)CC(=O)O[C@H]1C)C[C@H](O)[C@H]2C(=O)O [Amphotericin B],31
0.125,2,1,4,2,2,"O=C(c1ccc2cccnc2c1O)N1CCCc2c(Cl)ccc(O)c21 [Example 73, (5-Chloro-8-hydroxy-3,4-dihydroquinolin-1(2H)-yl)(8-hydroxyquinolin-7-yl)methanone]",–
0.13,4,4,2,1,2,"CN(C(=O)c1ccc2cccnc2c1O)c1ccc(Br)cc1 [Example 29, N-(4-Bromophenyl)-8-hydroxy-N-methylquinoline-7-carboxamide]",–
0.25,2,2,0.71,2,1,"O=C(c1ccc2cccnc2c1O)N1CCCc2ccc(F)cc21 [Example 61, (7-Fluoro-3,4-dihydroquinolin-1(2H)-yl)(8-hydroxyquinolin-7-yl)methanone]",–
0.25,2,2.83,0.71,2,1,"O=C(c1ccc2cccnc2c1O)N1CCCc2c(F)cccc21 [Example 71, (5-Fluoro-3,4-dihydroquinolin-1(2H)-yl)(8-hydroxyquinolin-7-yl)methanone]",–
